As usually defined, the IC50 is the concentration at which inhibition is half-maximal.

Structures are written as SMILES.

The target of the test is T1, NLRP3 (Homo sapiens, UniProt Q96P20).
T1 construct: host or cells: THP-1 cells differentiated with PMA
T1 sequence (Q96P20 whole entry): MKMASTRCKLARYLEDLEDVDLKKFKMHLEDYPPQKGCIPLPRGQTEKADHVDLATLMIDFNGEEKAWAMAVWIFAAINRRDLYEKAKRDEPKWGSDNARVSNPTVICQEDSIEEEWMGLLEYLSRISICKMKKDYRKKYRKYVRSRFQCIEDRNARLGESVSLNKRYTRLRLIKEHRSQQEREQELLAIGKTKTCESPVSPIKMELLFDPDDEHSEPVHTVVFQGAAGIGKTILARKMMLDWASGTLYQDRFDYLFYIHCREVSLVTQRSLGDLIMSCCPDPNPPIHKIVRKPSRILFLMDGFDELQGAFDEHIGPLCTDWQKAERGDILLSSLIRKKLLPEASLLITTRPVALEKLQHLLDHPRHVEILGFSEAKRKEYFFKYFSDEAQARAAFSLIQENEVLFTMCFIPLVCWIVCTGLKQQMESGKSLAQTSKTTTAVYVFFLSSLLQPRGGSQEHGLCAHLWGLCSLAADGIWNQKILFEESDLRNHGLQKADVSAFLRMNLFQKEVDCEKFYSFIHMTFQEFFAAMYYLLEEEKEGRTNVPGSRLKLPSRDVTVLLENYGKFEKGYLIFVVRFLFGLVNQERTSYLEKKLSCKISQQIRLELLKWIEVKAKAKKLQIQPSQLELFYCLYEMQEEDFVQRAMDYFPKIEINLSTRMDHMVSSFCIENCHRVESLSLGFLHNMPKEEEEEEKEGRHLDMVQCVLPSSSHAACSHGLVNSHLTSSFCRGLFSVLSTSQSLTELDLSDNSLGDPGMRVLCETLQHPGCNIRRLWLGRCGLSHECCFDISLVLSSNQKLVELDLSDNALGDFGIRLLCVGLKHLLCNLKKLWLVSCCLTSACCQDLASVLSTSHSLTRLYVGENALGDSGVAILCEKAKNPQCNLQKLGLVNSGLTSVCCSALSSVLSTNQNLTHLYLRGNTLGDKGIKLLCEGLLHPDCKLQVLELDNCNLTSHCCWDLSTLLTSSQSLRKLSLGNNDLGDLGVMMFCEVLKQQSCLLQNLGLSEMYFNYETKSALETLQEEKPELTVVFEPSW
The test can be described thus: IL-1β Secretion Assay (NLRP3-dependent IL1β secretion in THP1 cells). Format: cell-based. As to conditions: PMA-differentiated THP-1 cells; compounds incubated 20 h; 2.5 μM Nigericin 3 h; HTRF IL-1β readout; read-out: IC50 IL-1β Inhibition. A digest of the protocol:
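IL-1β in conditioned media, measured by HTRF after 3 h 2.5 μM nigericin stimulation, gave % inhibition fitted logistically for IC50. Before that, PMA-differentiated (100 ng/mL, 24 h) THP-1 cells were preincubated 20 h with 7 compound concentrations (3-fold serial, DMSO 1:200).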
(TR-FRET usually uses a lanthanide donor and a delayed reading to cut background.)
`COc1ccc(-c2nnc(N[C@@H]3C[C@@H](F)CN(C)C3)n3cncc23)c(OC(F)F)c1` [Compound 224, 1-[2-(difluoromethoxy)-4-methoxyphenyl]-N-[(3R,5R)-5-fluoro-1-methylpiperidin-3-yl]imidazo[1,5-d][1,2,4]triazin-4-amine]: the IC50 was in the range of 1 to 10 nM. Consider `CCN1C[C@H](F)C[C@@H](Nc2nnc(-c3ccc(C(F)(F)F)cc3C(F)(F)F)c3c(F)ccn23)C1` [Compound 32, 1-[2,4-bis(trifluoromethyl)phenyl]-N-[(3R,5R)-1-ethyl-5-fluoropiperidin-3-yl]-8-fluoropyrrolo[1,2-d][1,2,4]triazin-4-amine], for which the IC50 was 1 to 10 nM.

On to `COc1ccc(-c2nnc(N[C@@H]3CCCC[C@H]3O)n3cc(C)cc23)c(OC(F)(F)F)c1` [Compound 163, (1R,2R)-2-({1-[4-methoxy-2-(trifluoromethoxy)phenyl]-7-methylpyrrolo[1,2-d][1,2,4]triazin-4-yl}amino)cyclohexan-1-ol], for which the IC50 was in the range of 10 to 100 nM.

As to `Cc1ccc(-c2nnc(N[C@@H]3CCCC[C@H]3O)n3cccc23)c(CC(F)(F)F)c1` [Compound 156, (1R,2R)-2-({1-[4-methyl-2-(2,2,2-trifluoroethyl)phenyl]pyrrolo[1,2-d][1,2,4]triazin-4-yl}amino)cyclohexan-1-ol], the half-maximal inhibitory concentration (IC50) lay in the range of 1 to 10 nM. To `C[C@]1(O)C[C@@H](Nc2nnc(-c3ccc(C(F)(F)F)cc3OC(F)F)c3cncn23)C1` [Compound 187, (1s,3s)-3-({1-[2-(difluoromethoxy)-4-(trifluoromethyl)phenyl]imidazo[1,5-d][1,2,4]triazin-4-yl}amino)-1-methylcyclobutan-1-ol] belongs 1 to 10 nM; to `CCN1CCC[C@@H](Nc2nnc(-c3ccc(C(F)(F)F)cc3OC(F)(F)F)c3cncn23)C1` [Compound 229, N-[(3R)-1-ethylpiperidin-3-yl]-1-[2-(trifluoromethoxy)-4-(trifluoromethyl)phenyl]imidazo[1,5-d][1,2,4]triazin-4-amine], < 1 nM; to `COc1ccc(-c2nnc(N[C@@H]3CCCC[C@H]3O)n3cncc23)c(C2CC2)c1` [Compound 321, (1R,2R)-2-{[1-(2-cyclopropyl-4-methoxyphenyl)imidazo[1,5-d][1,2,4]triazin-4-yl]amino}cyclohexan-1-ol], 10 to 100 nM. Consider `O[C@@H]1CCCC[C@H]1Nc1nnc(-c2ccc(C(F)(F)F)cc2CC(F)(F)F)c2cccn12` [Compound 90, (1R,2R)-2-({1-[2-(2,2,2-trifluoroethyl)-4-(trifluoromethyl)phenyl]pyrrolo[1,2-d][1,2,4]triazin-4-yl}amino)cyclohexan-1-ol], for which the IC50 is < 1 nM. As for `OCCN1CCC[C@@H](Nc2nnc(-c3ccc(OC(F)F)cc3OC(F)(F)F)c3cncn23)C1` [Compound 258, 2-[(3R)-3-({1-[4-(difluoromethoxy)-2-(trifluoromethoxy)phenyl]imidazo[1,5-d][1,2,4]triazin-4-yl}amino)piperidin-1-yl]ethan-1-ol], the figure is 1 to 10 nM. On to `Cc1ccc(-c2nnc(N[C@@H]3CCCN(CCO)C3)n3cccc23)c(OC(F)F)c1` [Compound 45, 2-[(3R)-3-({1-[2-(difluoromethoxy)-4-methylphenyl]pyrrolo[1,2-d][1,2,4]triazin-4-yl}amino)piperidin-1-yl]ethan-1-ol], for which the IC50 was in the range of 10 to 100 nM.

Take `COc1ccc(-c2nnc(N[C@@H]3CCOC[C@H]3O)n3cccc23)c(CC(F)(F)F)c1` [Compound 144, (3S,4R)-4-({1-[4-methoxy-2-(2,2,2-trifluoroethyl)phenyl]pyrrolo[1,2-d][1,2,4]triazin-4-yl}amino)oxan-3-ol]: the IC50 was 1 to 10 nM. On to `CCN1CCC[C@@H](Nc2nnc(-c3ccc(S(C)(=O)=O)cc3OC(F)(F)F)c3cc(C)nn23)C1` [Compound 369, N-[(3R)-1-ethylpiperidin-3-yl]-4-[4-(methanesulfonyl)-2-(trifluoromethoxy)phenyl]-2-methylpyrazolo[1,5-d][1,2,4]triazin-7-amine], for which the IC50 is 10 to 100 nM. For the compound `COc1ccc(-c2nnc(NCc3ncnn3C)n3cccc23)c(OC(F)(F)F)c1` [Compound 93, 1-[4-methoxy-2-(trifluoromethoxy)phenyl]-N-[(1-methyl-1H-1,2,4-triazol-5-yl)methyl]pyrrolo[1,2-d][1,2,4]triazin-4-amine], the IC50 lay in the range of 10 to 100 nM. As for `COc1ccc(-c2nnc(N[C@@H]3CCOC3)n3cccc23)c(OC(F)(F)F)c1` [Compound 68, 1-[4-methoxy-2-(trifluoromethoxy)phenyl]-N-[(3R)-oxolan-3-yl]pyrrolo[1,2-d][1,2,4]triazin-4-amine], the figure is 10 to 100 nM; as for `CCN1CCC[C@@H](Nc2nnc(-c3ccc(C(F)(F)F)cc3Cl)c3cc(C)nn23)C1` [Compound 375, 4-[2-chloro-4-(trifluoromethyl)phenyl]-N-[(3R)-1-ethylpiperidin-3-yl]-2-methylpyrazolo[1,5-d][1,2,4]triazin-7-amine], 1 to 10 nM. For the compound `COc1ccc(-c2nnc(NC(C)c3cccc(O)c3)n3ccc(F)c23)c(C(F)(F)F)c1` (stereo not drawn) [Compound 149, 3-[1-({8-fluoro-1-[4-methoxy-2-(trifluoromethyl)phenyl]pyrrolo[1,2-d][1,2,4]triazin-4-yl}amino)ethyl]phenol], the IC50 is 1 to 10 nM. As to `COc1ccc(-c2nnc(N[C@@H]3CCOC[C@H]3O)n3cccc23)c(OC(F)F)c1` [Compound 167, (3S,4R)-4-({1-[2-(difluoromethoxy)-4-methoxyphenyl]pyrrolo[1,2-d][1,2,4]triazin-4-yl}amino)oxan-3-ol], the IC50 was in the range of 10 to 100 nM. For `Cc1ncn2c(N[C@@H]3CCCN(C)C3)nnc(-c3ccc(C(F)(F)F)cc3CC(F)(F)F)c12` [Compound 279, 8-methyl-N-[(3R)-1-methylpiperidin-3-yl]-1-[2-(2,2,2-trifluoroethyl)-4-(trifluoromethyl)phenyl]imidazo[1,5-d][1,2,4]triazin-4-amine], the IC50 was < 1 nM. As for `C[C@]1(O)C[C@@H](Nc2nnc(-c3ccc(C(F)(F)F)cc3CC(F)(F)F)c3cncn23)C1` [Compound 263, (1s,3s)-1-methyl-3-({1-[2-(2,2,2-trifluoroethyl)-4-(trifluoromethyl)phenyl]imidazo[1,5-d][1,2,4]triazin-4-yl}amino)cyclobutan-1-ol], the figure is < 1 nM; as for `CN(C)C1CCCN(c2nnc(-c3ccc(C(F)(F)F)cc3C(F)(F)F)c3cccn23)C1` (stereo not drawn) [Compound 7, 1-{1-[2,4-bis(trifluoromethyl)phenyl]pyrrolo[1,2-d][1,2,4]triazin-4-yl}-N,N-dimethylpiperidin-3-amine], 10 to 100 nM; as for `COc1ccc(-c2nnc(N[C@@H]3CCCN(C)C3)n3cc(C)cc23)c(OC(F)F)c1` [Compound 12, 1-[2-(difluoromethoxy)-4-methoxyphenyl]-7-methyl-N-[(3R)-1-methylpiperidin-3-yl]pyrrolo[1,2-d][1,2,4]triazin-4-amine], 1 to 10 nM.

With `OC[C@H]1C[C@@H](Nc2nnc(-c3ccc(C(F)(F)F)cc3C(F)(F)F)c3cncn23)C1` [Compound 257, [(1s,3s)-3-({1-[2,4-bis(trifluoromethyl)phenyl]imidazo[1,5-d][1,2,4]triazin-4-yl}amino)cyclobutyl]methanol], the IC50 was in the range of 1 to 10 nM. As to `Cc1ccc(-c2nnc(N[C@H]3C[C@@H](CO)C3)n3cncc23)c(OC(F)F)c1` [Compound 183, [(1s,3s)-3-({1-[2-(difluoromethoxy)-4-methylphenyl]imidazo[1,5-d][1,2,4]triazin-4-yl}amino)cyclobutyl]methanol], the IC50 was in the range of 10 to 100 nM. As for `O[C@H]1CCCC[C@@H]1Nc1nnc(-c2ccc(C(F)(F)F)cc2CC(F)(F)F)c2cccn12` [Compound 111, (1S,2S)-2-({1-[2-(2,2,2-trifluoroethyl)-4-(trifluoromethyl)phenyl]pyrrolo[1,2-d][1,2,4]triazin-4-yl}amino)cyclohexan-1-ol], the figure is 1 to 10 nM; as for `OC[C@H]1C[C@@H](Nc2nnc(-c3ccc(C4CC4)cc3CC(F)(F)F)c3cncn23)C1` [Compound 349, [(1s,3s)-3-({1-[4-cyclopropyl-2-(2,2,2-trifluoroethyl)phenyl]imidazo[1,5-d][1,2,4]triazin-4-yl}amino)cyclobutyl]methanol], 1 to 10 nM. To `CC(Nc1nnc(-c2ccc(C(F)(F)F)cc2CC(F)(F)F)c2cccn12)c1cccc(O)c1` (stereo not drawn) [Compound 96, 3-[1-({1-[2-(2,2,2-trifluoroethyl)-4-(trifluoromethyl)phenyl]pyrrolo[1,2-d][1,2,4]triazin-4-yl}amino)ethyl]phenol] belongs 1 to 10 nM; to `FC(F)(F)c1ccc(-c2nnc(Nc3cc[nH]n3)n3cncc23)c(C(F)(F)F)c1` [Compound 285, 1-[2,4-bis(trifluoromethyl)phenyl]-N-(1H-pyrazol-3-yl)imidazo[1,5-d][1,2,4]triazin-4-amine], 10 to 100 nM; to `CC(CO)N1CCC[C@@H](Nc2nnc(-c3ccc(C(F)(F)F)cc3OC(F)F)c3cccn23)C1` (stereo partly drawn) [Compound 22, 2-[(3R)-3-({1-[2-(difluoromethoxy)-4-(trifluoromethyl)phenyl]pyrrolo[1,2-d][1,2,4]triazin-4-yl}amino)piperidin-1-yl]propan-1-ol], < 1 nM. `C[C@]1(O)C[C@@H](Nc2nnc(-c3ccc(C4CC4)cc3CC(F)(F)F)c3cncn23)C1` [Compound 348, (1s,3s)-3-({1-[4-cyclopropyl-2-(2,2,2-trifluoroethyl)phenyl]imidazo[1,5-d][1,2,4]triazin-4-yl}amino)-1-methylcyclobutan-1-ol]: the IC50 was < 1 nM. As for `CN1CCC[C@@H](Nc2nnc(-c3ccc(Br)cc3OC(F)F)c3cncn23)C1` [Compound 195, 1-[4-bromo-2-(difluoromethoxy)phenyl]-N-[(3R)-1-methylpiperidin-3-yl]imidazo[1,5-d][1,2,4]triazin-4-amine], the figure is < 1 nM.

Values taken from patent US20250179078A1, “INHIBITORS OF NLRP3” (PTC THERAPEUTICS, INC., priority 2022, published 2025).
